Data taken from patent US9339508B2, “Use of 3-methoxy-pregnenolone for the preparation of a drug for treating a traumatic brain injury” (MAPREG, priority 2003, dated 2016).

Columns and labels:
[1] = system: GAP43; assay: Western blot of GAP43 in cortex and hippocampus after CCI; type: in vivo, rat; conditions: day 35, injured cortex (20 mg/kg only), hippocampus and non-injured cortex (both doses)
Procedure: (§1) CCI was performed with an electromagnetic impact device as described (MyNeurolab, St. Louis, Mo.; Brody et al, 2007). Anesthesized rats were subjected to a single right lateral CCI, with the following parameters impact centered 4.0 mm anterior to lambda and 4.5 mm […] of midline, within the craniotomy of the animal. The impact was set at a velocity of 4 m/s with a sustained depression of 200 ms, using a 5.0 mm tip.
(§2) Samples were analyzed by Western-blot at day 35 post-trauma (D35) to evaluate the effects of MAP4343 on: MAP2 (the target of MAP4343 and a modulator of microtubule function), the post-synaptic markers PSD95 and spinophilin, the pre-synaptic marker synaptophysin, and the axonal growth/integrity marker […].
(§3) Western blot was performed on cortex and hippocampus of TBI-injured animals receiving the first injection of MAP4343 (at 10 mg/kg or 20 mg/kg) or vehicle (sesame oil) 2 h after injury.
(§4) The expression level of various neuronal brain markers of plasticity was measured at day 35 post-trauma by western-blots in the cortex and hippocampus of left uninjured and right injured cerebral hemispheres of CCI traumatized animals receiving either vehicle (sesame oil, CCI-D0) or 3-methoxy-PREG (MAP4343) at 10 mg/kg (CCI-D1) or 20 mg/kg (CCI-D2), with first MAP4343 injection 2 h post-trauma.

[2] = system: PSD95; assay: Western blot of PSD95 in cortex and hippocampus after CCI; type: in vivo, rat; conditions: day 35, 20 mg/kg, first injection 2 h post-trauma, ipsilateral injured cortex and hippocampus, contralateral cortex
Procedure: as §1, §2, §3, §4

[3] = system: Synaptophysin; assay: Western blot of synaptophysin in cortex and hippocampus after CCI; type: in vivo, rat; conditions: day 35, 20 mg/kg, first injection 2 h post-trauma, injured hippocampus
Procedure: as §1, §2, §3, §4

[4] = MAP4343 in the brain after TBI (CHI, LFP, CCI) by LC-MS/MS; type: in vivo, rat; conditions: 6 h after CHI, LFP or CCI, 4 h after single subcutaneous injection
Procedure: MAP4343 was dissolved in sesame oil and injected sub-cutaneously. Two distinct doses of MAP4343 (10 and 20 mg/kg) were tested in each model. The injection took place 2 h after trauma.
In order to establish whether TBI modifies the passage of MAP4343 into the brain, MAP4343 was measured by liquid chromatography associated to tandem mass spectrometry (LC-MS/MS) in the brain of animals sacrificed 6 h after CHI, LFP or CCI (4 h after MAP4343 single injection).
In order to establish whether TBI modifies the passage of 3-methoxy-PREG (MAP434) into the brain, MAP4343 was measured by liquid chromatography coupled to tandem mass spectrometry LC-MS/MS in the brain of animals sacrificed 6 h after CHI, LFP or CCI (4 h. after MAP4343 injection).

[5] = system: PC12 cell line; assay: Cellular toxicity on the PC12 cell line; type: cell-based, rat; conditions: concentrations as high as solubility limits
Procedure: Cellular toxicity tests are carried out routinely on the PC12 cell line.

[6] = biological target: T1, microtubule-associated MAP2 (Rattus norvegicus, UniProt P15146); assay: Immunolabeling of microtubule-associated MAP2 in PC12 cells; type: cell-based; conditions: 20 μM, NGF 10 ng/ml
T1 construct: endogenous in cells; host or cells: PC12 cells
Description: They were fixed and exposed to anti-MAP2 antibodies that reveal microtubule-associated MAP2 esclusively.
To rest the effect of selected molecules on neuritic growth, we first used the PC12 line, which has long been employed in neurobiological research. In the presence of NOF (nerve growth factor), the cells of this line, which arise from a rat pheochromocytoma, form neuritic extensions containing MAP-associated microtubules. The growth of these elongations is stimulated by the addition of PREG. […] The screening of other natural or synthetic steroids made it possible to select several molecules presenting greater effects than that of PRIG (FIG. 2). In particular, the addition of molecule 43B, which can be synthesized easily from PRIG, caused a spectacular increase (reaching as high as 500%) in the length of neurites formed in the presence of NOF (FIG. 3). This neurite growth accompanies the stimulation by 43-3 of the association of MAP2 to the microtubules (FIG. 4).

[7] = system: social isolated rats; assay: Novel object recognition test, social isolated animals, 1 h ITI; type: in vivo, rat; conditions: 10 mg/kg subcutaneously 1 h before task
Description: (§5) Cognitive dysfunction, including impaired recognition memory, are common features in depressed patients (Egeland et al., Scand. J. Psychol. 2005). The present experiment explored the ability of 3-methoxy-PREG (43B) administration to increase recognition memory retention in naive animals and to recover recognition memory deficits in animals submitted to the social isolation protocol. Rearing rats in isolation from the time of weaning and throughout adulthood can induce a series of hippocampal structural and molecular deficits paralled by behavioural alterations resembling a depressive-like state (Weiss and Feldon, Psychopharmacology 2001; Bianchi et al., EJN 2006). Recognition memory was assessed using the NOR test which is a two-trial test of recognition memory based on the spontaneous preference of rats for novelty (Ennaceur and Delacour, Behav. Brain. Res. 1988; Bianchi et al. EJN. 2006). Briefly, rats are placed in the open field arena for a 3 min period of habituation and then re-placed in their “home” cage for 1 min. The animals are then re-placed in the arena for the familiarization trial (T1) and allowed to explore two identical objects for 5 min. […] The ability of the animals to discriminate between the novel and the familiar object is then expressed as D2-INDEX: [novel object (sec)−familiar object (sec)]/[novel object (sec)+familiar object (sec)] […]

[8] = Pharmacokinetics by GC/MS, brain and spinal cord; type: in vivo, rat; conditions: 12 mg/kg subcutaneous in sesame oil; 1, 4, 8, 24 hours
Procedure: FIG. 9: Kinetics of the appearance of 3-methoxy-PREG (43B) in rat brain and spinal cord following subcutaneous injection of 43B (12 mg/kg) in a sesame oil solution.
The pharmacokinetics of the molecules tested in vivo are evaluated using gas chromatography/mass spectrometry (GC/MS) assays.

[9] = system: Sprague Dawley rats; assay: Novel object recognition test, naive animals, 4 h ITI; type: in vivo, rat; conditions: 10 mg/kg subcutaneously immediately after T1
Description: as §5

T1 sequence (P15146 whole entry): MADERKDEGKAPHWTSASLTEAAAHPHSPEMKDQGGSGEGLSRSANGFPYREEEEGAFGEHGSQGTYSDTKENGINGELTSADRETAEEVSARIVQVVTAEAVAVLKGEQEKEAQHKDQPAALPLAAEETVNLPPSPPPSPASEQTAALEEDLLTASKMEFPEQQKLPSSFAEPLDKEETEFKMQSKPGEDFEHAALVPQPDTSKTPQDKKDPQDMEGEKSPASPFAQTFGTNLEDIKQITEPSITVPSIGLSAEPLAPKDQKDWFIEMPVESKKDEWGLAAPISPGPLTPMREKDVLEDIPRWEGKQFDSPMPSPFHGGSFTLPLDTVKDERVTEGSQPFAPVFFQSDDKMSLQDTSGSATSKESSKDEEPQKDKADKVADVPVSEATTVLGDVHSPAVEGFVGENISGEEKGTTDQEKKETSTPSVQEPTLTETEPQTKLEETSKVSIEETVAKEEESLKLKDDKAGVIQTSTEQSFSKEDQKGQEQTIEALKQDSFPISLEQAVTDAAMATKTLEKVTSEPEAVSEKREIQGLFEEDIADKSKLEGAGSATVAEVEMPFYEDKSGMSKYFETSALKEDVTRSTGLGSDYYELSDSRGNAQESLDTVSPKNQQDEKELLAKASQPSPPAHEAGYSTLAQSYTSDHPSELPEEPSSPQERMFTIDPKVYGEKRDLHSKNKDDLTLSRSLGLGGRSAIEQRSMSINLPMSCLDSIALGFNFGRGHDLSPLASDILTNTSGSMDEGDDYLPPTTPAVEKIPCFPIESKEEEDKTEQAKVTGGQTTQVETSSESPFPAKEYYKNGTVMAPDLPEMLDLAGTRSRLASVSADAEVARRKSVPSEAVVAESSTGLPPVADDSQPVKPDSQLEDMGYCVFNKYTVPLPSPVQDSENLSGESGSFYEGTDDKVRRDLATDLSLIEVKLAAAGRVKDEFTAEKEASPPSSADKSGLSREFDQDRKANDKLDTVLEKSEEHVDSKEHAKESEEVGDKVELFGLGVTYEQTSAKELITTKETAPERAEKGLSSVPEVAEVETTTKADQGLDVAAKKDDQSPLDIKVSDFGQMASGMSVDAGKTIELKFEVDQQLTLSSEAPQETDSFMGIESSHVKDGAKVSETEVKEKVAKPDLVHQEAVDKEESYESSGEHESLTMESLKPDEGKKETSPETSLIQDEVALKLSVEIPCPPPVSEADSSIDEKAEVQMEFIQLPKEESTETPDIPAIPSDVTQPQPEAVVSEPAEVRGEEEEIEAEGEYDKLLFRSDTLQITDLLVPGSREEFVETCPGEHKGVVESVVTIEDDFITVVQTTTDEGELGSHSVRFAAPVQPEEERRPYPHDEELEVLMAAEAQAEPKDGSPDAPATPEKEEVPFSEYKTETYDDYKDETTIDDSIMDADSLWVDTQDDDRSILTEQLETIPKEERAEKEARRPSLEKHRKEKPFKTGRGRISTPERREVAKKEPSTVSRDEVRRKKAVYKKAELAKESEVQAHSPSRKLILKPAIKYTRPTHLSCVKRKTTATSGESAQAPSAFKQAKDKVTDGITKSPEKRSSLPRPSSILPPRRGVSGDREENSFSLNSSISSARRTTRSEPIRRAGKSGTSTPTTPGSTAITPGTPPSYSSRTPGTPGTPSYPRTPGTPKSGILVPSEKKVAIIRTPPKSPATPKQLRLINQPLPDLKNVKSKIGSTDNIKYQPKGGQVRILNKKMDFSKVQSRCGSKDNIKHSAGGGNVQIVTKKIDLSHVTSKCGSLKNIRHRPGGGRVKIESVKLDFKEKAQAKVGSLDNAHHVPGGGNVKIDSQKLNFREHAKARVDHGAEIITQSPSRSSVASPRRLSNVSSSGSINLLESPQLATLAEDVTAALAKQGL

Question: Which GAP-43 expression [1] does the source give for `CO[C@H]1CC[C@@]2(C)C(=CC[C@H]3[C@@H]4CC[C@H](C(C)=O)[C@@]4(C)CC[C@@H]32)C1` [3-methoxy-PREG, 3β-methoxy-pregna-5-ene-20-one] here?
Answer: Its GAP-43 expression is “increased GAP-43 expression”.

Question: And the PSD95 expression [2]?
Answer: Its PSD95 expression is “increase in PSD95 expression”.

Question: What about the Synaptophysin expression [3] of the same compound?
Answer: Its Synaptophysin expression is “increase in Synaptophysin expression in injured hippocampus”.

Question: And the “concentrations of MAP4343 that reach the brain” value [4]?
Answer: The value was “concentrations of MAP4343 of significant therapeutic interest reach the brain”.

Question: What about the cellular toxicity [5] of the same compound?
Answer: Its cellular toxicity is “do not demonstrate toxicity”.

Question: What about the “association of MAP2 to the microtubules” value [6] of the same compound?
Answer: The value was “stimulation”.

Question: What about the “discrimination between familiar and novel object” value [7] of the same compound?
Answer: The value was “efficiently discriminated between the familiar and the novel object”.

Question: What about the “penetration into spinal cord and brain” value [8] of the same compound?
Answer: The value was “penetrates rapidly into the spinal cord and the brain”.

Question: What about the “discrimination between novel and familiar object” value [9] of the same compound?
Answer: Its value is “discriminated between the novel and the familiar object showing increased memory retention”.
